Laboratory results from article PMC5218480 (PLoS ONE, 2017).

Test system: MV-4-11 cells
Test: Gene expression microarray analysis (Affymetrix PrimeView) and GSEA
Type: cell-based, human
Set-up: RFU PODN (11730768_x_at) / Fold change /veh PODN (11730768_x_at) / RFU LINC00158 (11744669_a_at) / Fold change /veh LINC00158 (11744669_a_at) / RFU DUSP10 (11751237_a_at) / Fold change /veh DUSP10 (11751237_a_at) / RFU ID3 (11757404_x_at) / Fold change /veh ID3 (11757404_x_at) / RFU PLEKHG5 (11737974_s_at) / Fold change /veh PLEKHG5 (11737974_s_at) / RFU LRRC4B (11730491_at) / Fold change /veh LRRC4B (11730491_at) / RFU GIMAP4 (11747438_a_at) / Fold change /veh GIMAP4 (11747438_a_at) / RFU KRT8 (11758183_x_at) / Fold change /veh KRT8 (11758183_x_at) / RFU CNN1 (11734310_a_at) / Fold change /veh CNN1 (11734310_a_at) / RFU VPS37D (11726825_at) / Fold change /veh VPS37D (11726825_at) / RFU C10orf10 (11716522_x_at) / Fold change /veh C10orf10 (11716522_x_at) / RFU KIR2DL2 /// KIR2DL4 /// KIR2DL5A /// KIR2DL5B /// KIR2DS1 /// KIR2DS2 /// KIR2DS3 /// KIR2DS4 /// KIR3DL3 /// KIR3DL3 /// KIR3DS1 (11738374_at) / Fold change /veh KIR2DL2 /// KIR2DL4 /// KIR2DL5A /// KIR2DL5B /// KIR2DS1 /// KIR2DS2 /// KIR2DS3 /// KIR2DS4 /// KIR3DL3 /// KIR3DL3 /// KIR3DS1 (11738374_at) / RFU C1QL1 (11718748_at) / Fold change /veh C1QL1 (11718748_at) / RFU TMPRSS4 (11747572_a_at) / Fold change /veh TMPRSS4 (11747572_a_at) / RFU HAMP (11756126_x_at) / Fold change /veh HAMP (11756126_x_at) / RFU RNFT2 (11725882_a_at) / Fold change /veh RNFT2 (11725882_a_at) / RFU NR4A2 (11747474_a_at) / Fold change /veh NR4A2 (11747474_a_at) / RFU ABCC12 (11746883_a_at) / Fold change /veh ABCC12 (11746883_a_at) / RFU TMEM136 (11760407_x_at) / Fold change /veh TMEM136 (11760407_x_at) / RFU CLDN22 /// WWC2 (11732394_at) / Fold change /veh CLDN22 /// WWC2 (11732394_at) / RFU HLA-DPB1 (11760878_x_at) / Fold change /veh HLA-DPB1 (11760878_x_at) / RFU SPINT1 (11716480_a_at) / Fold change /veh SPINT1 (11716480_a_at) / RFU GAP43 (11754022_s_at) / Fold change /veh GAP43 (11754022_s_at) / RFU A4GNT (11735810_at) / Fold change /veh A4GNT (11735810_at) / RFU PRB3 (11715151_x_at) / Fold change /veh PRB3 (11715151_x_at) / RFU TUBB4B (11761932_at) / Fold change /veh TUBB4B (11761932_at) / RFU CAPN14 (11732068_a_at) / Fold change /veh CAPN14 (11732068_a_at) / RFU TMCC2 (11721928_a_at) / Fold change /veh TMCC2 (11721928_a_at) / RFU IRGQ (11745062_a_at) / Fold change /veh IRGQ (11745062_a_at) / RFU FAM174B (11720279_a_at) / Fold change /veh FAM174B (11720279_a_at) / RFU TMPRSS4 (11748680_a_at) / Fold change /veh TMPRSS4 (11748680_a_at) / RFU FAM212B (11763350_a_at) / Fold change /veh FAM212B (11763350_a_at) / RFU PLEKHG5 (11743358_a_at) / Fold change /veh PLEKHG5 (11743358_a_at) / RFU ZSCAN30 (11745921_a_at) / Fold change /veh ZSCAN30 (11745921_a_at) / RFU CMKLR1 (11741424_a_at) / Fold change /veh CMKLR1 (11741424_a_at) / RFU LOC101060620 /// MAPK8IP1 (11723275_at) / Fold change /veh LOC101060620 /// MAPK8IP1 (11723275_at) / RFU SPTSSB (11747773_x_at) / Fold change /veh SPTSSB (11747773_x_at) / RFU PRSS12 (11739890_at) / Fold change /veh PRSS12 (11739890_at) / RFU BIN1 (11741810_x_at) / Fold change /veh BIN1 (11741810_x_at) / RFU WNT11 (11732464_a_at) / Fold change /veh WNT11 (11732464_a_at) / RFU C10orf10 (11716521_a_at) / Fold change /veh C10orf10 (11716521_a_at) / RFU C5orf56 (11738089_at) / Fold change /veh C5orf56 (11738089_at) / RFU CYB561 (11721691_x_at) / Fold change /veh CYB561 (11721691_x_at) / RFU ANKRD19P (11752326_a_at) / Fold change /veh ANKRD19P (11752326_a_at) / RFU OR2T12 /// OR2T33 /// OR2T8 (11738714_s_at) / Fold change /veh OR2T12 /// OR2T33 /// OR2T8 (11738714_s_at) / RFU VCAN (11748164_a_at) / Fold change /veh VCAN (11748164_a_at) / RFU JSRP1 (11732532_at) / Fold change /veh JSRP1 (11732532_at) / RFU KRTAP10-11 (11738290_x_at) / Fold change /veh KRTAP10-11 (11738290_x_at) / RFU MYO3A (11730013_a_at) / Fold change /veh MYO3A (11730013_a_at) / RFU EBF3 (11725865_a_at) / Fold change /veh EBF3 (11725865_a_at) / RFU CAMK2N1 (11719241_x_at) / Fold change /veh CAMK2N1 (11719241_x_at) / RFU C5orf56 (11738088_a_at) / Fold change /veh C5orf56 (11738088_a_at) / RFU OLFML3 (11715873_a_at) / Fold change /veh OLFML3 (11715873_a_at) / RFU LOC100653217 /// NTM (11731650_a_at) / Fold change /veh LOC100653217 /// NTM (11731650_a_at) / RFU MAPK11 (11762145_a_at) / Fold change /veh MAPK11 (11762145_a_at) / RFU FIZ1 (11724087_x_at) / Fold change /veh FIZ1 (11724087_x_at) / RFU OASL (11726364_x_at) / Fold change /veh OASL (11726364_x_at) / RFU SOX15 (11748057_x_at) / Fold change /veh SOX15 (11748057_x_at) / RFU CD79A (11719716_a_at) / Fold change /veh CD79A (11719716_a_at) / RFU HIST1H1D (11736915_at) / Fold change /veh HIST1H1D (11736915_at) / RFU CASKIN2 (11723855_a_at) / Fold change /veh CASKIN2 (11723855_a_at) / RFU LOC730098 (11760151_x_at) / Fold change /veh LOC730098 (11760151_x_at) / RFU OR4N2 (11742367_at) / Fold change /veh OR4N2 (11742367_at) / RFU PRRT2 (11749266_a_at) / Fold change /veh PRRT2 (11749266_a_at) / RFU SNX32 (11753110_a_at) / Fold change /veh SNX32 (11753110_a_at) / RFU CDHR5 (11726645_a_at) / Fold change /veh CDHR5 (11726645_a_at) / RFU RCAN1 (11760418_a_at) / Fold change /veh RCAN1 (11760418_a_at) / RFU FAM167A (11723789_a_at) / Fold change /veh FAM167A (11723789_a_at) / RFU FAM26E (11764081_at) / Fold change /veh FAM26E (11764081_at) / RFU ISYNA1 (11749810_s_at) / Fold change /veh ISYNA1 (11749810_s_at) / RFU ACY1 (11761880_at) / Fold change /veh ACY1 (11761880_at) / RFU 11764098_at / Fold change /veh 11764098_at / RFU SAMD14 (11745864_x_at) / Fold change /veh SAMD14 (11745864_x_at) / RFU NPB (11741838_a_at) / Fold change /veh NPB (11741838_a_at) / RFU TMPRSS6 (11731388_a_at) / Fold change /veh TMPRSS6 (11731388_a_at) / RFU KRTAP10-2 (11738614_at) / Fold change /veh KRTAP10-2 (11738614_at) / RFU ARHGAP8 /// PRR5-ARHGAP8 (11727945_x_at) / Fold change /veh ARHGAP8 /// PRR5-ARHGAP8 (11727945_x_at) / RFU KRTAP5-7 /// NADSYN1 (11734609_at) / Fold change /veh KRTAP5-7 /// NADSYN1 (11734609_at) / RFU RASL12 (11751679_a_at) / Fold change /veh RASL12 (11751679_a_at) / RFU CDKN2B (11736163_a_at) / Fold change /veh CDKN2B (11736163_a_at) / RFU PRF1 (11729649_at) / Fold change /veh PRF1 (11729649_at) / RFU, ZNF638 /// ZNF638-IT1 / Fold change vs veh, ZNF638 /// ZNF638-IT1 / RFU, PANK3 / Fold change vs veh, PANK3 / RFU, SH3YL1 / Fold change vs veh, SH3YL1 / RFU, ZEB2 / Fold change vs veh, ZEB2 / RFU, NRIP1 / Fold change vs veh, NRIP1 / RFU, PTTG1IP / Fold change vs veh, PTTG1IP / RFU, CAPN2 / Fold change vs veh, CAPN2 / RFU, MED14 / Fold change vs veh, MED14 / RFU, SNORA58 / Fold change vs veh, SNORA58 / RFU, C1orf63 / Fold change vs veh, C1orf63 / RFU, LRRFIP1 / Fold change vs veh, LRRFIP1 / RFU, NDUFAF7 / Fold change vs veh, NDUFAF7 / RFU, SLC12A2 / Fold change vs veh, SLC12A2 / RFU, IBTK / Fold change vs veh, IBTK / RFU, ESF1 / Fold change vs veh, ESF1 / Fold change vs veh, TMEM50B / RFU, TAOK1 / Fold change vs veh, TAOK1 / RFU, ACBD3 / Fold change vs veh, ACBD3 / RFU, TMA16 / Fold change vs veh, TMA16 / RFU, RWDD3 / Fold change vs veh, RWDD3 / RFU, BCAT1 / Fold change vs veh, BCAT1 / RFU, EDEM3 / Fold change vs veh, EDEM3 / RFU, TMEM33 / Fold change vs veh, TMEM33 / RFU, WDR75 / Fold change vs veh, WDR75 / RFU, AHCTF1 / Fold change vs veh, AHCTF1 / RFU, TFRC / Fold change vs veh, TFRC / RFU, ZDHHC17 / Fold change vs veh, ZDHHC17 / RFU, NOM1 / Fold change vs veh, NOM1 / RFU, ARL8B / Fold change vs veh, ARL8B / RFU, ZBTB11 / Fold change vs veh, ZBTB11 / RFU, TAMM41 / Fold change vs veh, TAMM41 / RFU, KIAA1704 /// LOC100996395 / Fold change vs veh, KIAA1704 /// LOC100996395 / RFU, ING1 / Fold change vs veh, ING1 / RFU, TRMT61B / Fold change vs veh, TRMT61B / RFU, FUBP3 / Fold change vs veh, FUBP3 / RFU, TP53 / Fold change vs veh, TP53 / RFU, TNKS2 / Fold change vs veh, TNKS2 / RFU, ZFP14 / Fold change vs veh, ZFP14 / RFU, ACTR2 / Fold change vs veh, ACTR2 / RFU, PPP3R1 / Fold change vs veh, PPP3R1 / RFU, PIK3R1 / Fold change vs veh, PIK3R1 / RFU, HNRNPA1 / Fold change vs veh, HNRNPA1 / RFU, RNF170 / Fold change vs veh, RNF170 / RFU, ZNF28 / Fold change vs veh, ZNF28 / RFU, RNGTT / Fold change vs veh, RNGTT / RFU, OGT / Fold change vs veh, OGT / RFU, BRD1 / Fold change vs veh, BRD1 / RFU, MARS / Fold change vs veh, MARS / RFU, ZNF655 / Fold change vs veh, ZNF655 / RFU, FAHD1 / Fold change vs veh, FAHD1 / RFU, BDP1 / Fold change vs veh, BDP1 / RFU, LRRCC1 / Fold change vs veh, LRRCC1 / RFU, ARID1A / Fold change vs veh, ARID1A / RFU, ZNF146 / Fold change vs veh, ZNF146 / RFU, ZNF330 / Fold change vs veh, ZNF330 / RFU, GPN3 / Fold change vs veh, GPN3 / RFU, C9orf123 / Fold change vs veh, C9orf123 / RFU, N4BP2L2 / Fold change vs veh, N4BP2L2 / RFU, ARFIP1 / Fold change vs veh, ARFIP1 / RFU, FAM179B / Fold change vs veh, FAM179B / RFU, BCL10 / Fold change vs veh, BCL10 / RFU, UHRF1BP1L / Fold change vs veh, UHRF1BP1L / RFU, BET1 / Fold change vs veh, BET1 / RFU, CNOT2 / Fold change vs veh, CNOT2 / RFU, ZNF268 / Fold change vs veh, ZNF268 / Fold change vs veh, ZNF507 / RFU, DGCR2 / Fold change vs veh, DGCR2 / RFU, WDSUB1 / Fold change vs veh, WDSUB1 / Fold change vs veh, HSP90B1 /// MIR3652 / RFU, ADSS / Fold change vs veh, ADSS / RFU, GK / Fold change vs veh, GK / RFU, ZNF148 / Fold change vs veh, ZNF148 / RFU, TAF9 / Fold change vs veh, TAF9 / RFU, SLC1A5 / Fold change vs veh, SLC1A5 / RFU, SLMO2 / Fold change vs veh, SLMO2 / RFU, ABCC4 / Fold change vs veh, ABCC4 / RFU, LOC101060439 /// RAP1B / Fold change vs veh, LOC101060439 /// RAP1B / RFU, RFX7 / Fold change vs veh, RFX7 / RFU, GTPBP10 / Fold change vs veh, GTPBP10 / RFU, CNEP1R1 / Fold change vs veh, CNEP1R1 / RFU, BIVM-ERCC5 /// ERCC5 / Fold change vs veh, BIVM-ERCC5 /// ERCC5 / RFU, ILF3 / Fold change vs veh, ILF3 / RFU 11762660_at / Fold change /veh 11762660_at / RFU VCAN (11757783_s_at) / Fold change /veh VCAN (11757783_s_at) / RFU DDX43 (11728927_at) / Fold change /veh DDX43 (11728927_at) / RFU KRT8 (11758188_x_at) / Fold change /veh KRT8 (11758188_x_at) / RFU NKD1 (11759106_at) / Fold change /veh NKD1 (11759106_at) / RFU SRD5A1 (11742802_a_at) / Fold change /veh SRD5A1 (11742802_a_at) / RFU TPSAB1 /// TPSB2 (11721975_s_at) / Fold change /veh TPSAB1 /// TPSB2 (11721975_s_at) / RFU GSTM3 (11746129_a_at) / Fold change /veh GSTM3 (11746129_a_at) / RFU IL23R (11737362_x_at) / Fold change /veh IL23R (11737362_x_at) / RFU TMEM51 (11727254_a_at) / Fold change /veh TMEM51 (11727254_a_at) / RFU PIWIL2 (11732686_x_at) / Fold change /veh PIWIL2 (11732686_x_at) / RFU ORM1 (11744905_x_at) / Fold change /veh ORM1 (11744905_x_at) / RFU CCDC152 (11743942_at) / Fold change /veh CCDC152 (11743942_at) / RFU ECM1 (11717891_a_at) / Fold change /veh ECM1 (11717891_a_at) / RFU IL23R (11748794_a_at) / Fold change /veh IL23R (11748794_a_at) / RFU TNFAIP8L3 (11732012_x_at) / Fold change /veh TNFAIP8L3 (11732012_x_at) / RFU MBOAT4 (11741988_at) / Fold change /veh MBOAT4 (11741988_at) / RFU 11764193_at / Fold change /veh 11764193_at / RFU TMEM53 (11763286_at) / Fold change /veh TMEM53 (11763286_at) / RFU MAGEB2 (11727129_at) / Fold change /veh MAGEB2 (11727129_at) / RFU TMEM200A (11744735_a_at) / Fold change /veh TMEM200A (11744735_a_at) / RFU CCDC152 (11751479_a_at) / Fold change /veh CCDC152 (11751479_a_at) / RFU FAM211A (11726209_a_at) / Fold change /veh FAM211A (11726209_a_at) / RFU RGS16 (11746705_a_at) / Fold change /veh RGS16 (11746705_a_at) / RFU VCAN (11755009_s_at) / Fold change /veh VCAN (11755009_s_at) / RFU RHOB (11743442_s_at) / Fold change /veh RHOB (11743442_s_at) / RFU RGS16 (11720943_a_at) / Fold change /veh RGS16 (11720943_a_at) / RFU RGS16 (11720944_at) / Fold change /veh RGS16 (11720944_at) / RFU, VPS4B / Fold change vs veh, VPS4B / RFU, CREB1 / Fold change vs veh, CREB1 / RFU, DNAJC13 / Fold change vs veh, DNAJC13 / RFU, GNAQ / Fold change vs veh, GNAQ / RFU, CDK5R1 / Fold change vs veh, CDK5R1 / RFU, ZRANB3 / Fold change vs veh, ZRANB3 / RFU, CUL4A / Fold change vs veh, CUL4A / RFU, CCNY / Fold change vs veh, CCNY / RFU, UFL1 / Fold change vs veh, UFL1 / RFU, COG3 / Fold change vs veh, COG3 / RFU, DIAPH2 / Fold change vs veh, DIAPH2 / RFU, SKA2 / Fold change vs veh, SKA2 / RFU, AFF3 / Fold change vs veh, AFF3 / RFU, LMF1 / Fold change vs veh, LMF1 / RFU, IPO11 / Fold change vs veh, IPO11 / RFU, DFFB / Fold change vs veh, DFFB / RFU, FOXP1 / Fold change vs veh, FOXP1 / RFU, CARD8 / Fold change vs veh, CARD8 / RFU, STRN3 / Fold change vs veh, STRN3 / RFU, ADK / Fold change vs veh, ADK / RFU, RASSF2 / Fold change vs veh, RASSF2 / RFU, WIPF1 / Fold change vs veh, WIPF1 / RFU, LARP1B / Fold change vs veh, LARP1B / RFU, RASA1 / Fold change vs veh, RASA1 / RFU, RB1 / Fold change vs veh, RB1 / RFU, PPFIA1 / Fold change vs veh, PPFIA1 / RFU, MAT2A / Fold change vs veh, MAT2A / RFU, CCT5 / Fold change vs veh, CCT5 / RFU, WDR92 / Fold change vs veh, WDR92 / RFU, CUX1 / Fold change vs veh, CUX1 / RFU, TTC7A / Fold change vs veh, TTC7A / RFU, TMEM135 / Fold change vs veh, TMEM135 / RFU, DEPTOR / Fold change vs veh, DEPTOR / RFU, CPM / Fold change vs veh, CPM / RFU, DNAJB6 / Fold change vs veh, DNAJB6 / RFU, CACNA2D3 / Fold change vs veh, CACNA2D3 / RFU, DTX4 / Fold change vs veh, DTX4 / RFU, TFCP2 / Fold change vs veh, TFCP2 / RFU, GMCL1 /// GMCL1P1 / Fold change vs veh, GMCL1 /// GMCL1P1 / RFU, AEBP2 / Fold change vs veh, AEBP2 / RFU, SNHG1 /// SNORD22 /// SNORD25 /// SNORD26 /// SNORD27 /// SNORD28 /// SNORD29 /// SNORD31 / Fold change vs veh, SNHG1 /// SNORD22 /// SNORD25 /// SNORD26 /// SNORD27 /// SNORD28 /// SNORD29 /// SNORD31 / Fold change (Aza/veh), C12orf56 (ProbeSet 11735607_a_at) / Fold change (ACY-1035/veh), C12orf56 (ProbeSet 11735607_a_at) / Fold change (Aza/veh), FGFR1OP (ProbeSet 11751329_s_at) / Fold change (ACY-1035/veh), FGFR1OP (ProbeSet 11751329_s_at) / Fold change (Aza/veh), VPS36 (ProbeSet 11739960_a_at) / Fold change (ACY-1035/veh), VPS36 (ProbeSet 11739960_a_at) / RFU SYPL1 (11715823_x_at) / Fold change /veh SYPL1 (11715823_x_at) / RFU IGFBP7 (11715501_s_at) / Fold change /veh IGFBP7 (11715501_s_at) / RFU REEP3 (11722064_at) / Fold change /veh REEP3 (11722064_at) / RFU IGLL1 (11728026_x_at) / Fold change /veh IGLL1 (11728026_x_at): dose or concentration left out as unconfirmed
Conditions: ProbeSet 11724526_at; LIST B

**Q.** `Nc1ccc(-c2cccs2)cc1NC(=O)c1ccc2c(c1)cc(C1CC1)n2CCN1CCOCC1` [ACY-1035] was tested. Which “RFU, FAHD1” value did it give?
**A.** Its value is 149.86 RFU.
